The values below come from US8211654B2, “High-throughput assay for sugar-mediated drug transport” (Wisconsin Alumni Research Foundation, priority 2008, dated 2012).

For data set [1], the system named is MCF10A (immortalized breast), MCF7 (breast cancer), A549 (non-small cell lung cancer), Du145 (prostrate cancer), RWPE (immortalized prostrate). Description: Sugar transporter assay: uptake of sugar-fluorophore conjugates by intracellular fluorescence, normalized to cell number. It counts as cell-based. To be noted: 1 hour incubation; dose range 250-0 μM; five cell lines; compared with D-glucose conjugate. As for the experimental part:
FIG. 5. Representative sugar transporter assays. […] For each cell line, the dose range was 250 μM, 125 μM, 62.5 μM, 31.3 μM, 15.6 μM, 7.8 μM, 3.9 μM and 0 μM. The average error (40 compounds, 5 cell lines) was 8.3%.
For the sugar transporter assay of the present invention, cells were plated at a density of 30,000 cells/ml (100 μL/well) in a 96-well clear bottom microtiter plates. Cells were allowed to attach overnight, and then incubated in glucose-free medium for an additional 24 hours. Compounds were added (from 96-well compound stock plates at a 1:100 dilution) using a Biomek FX liquid handler equipped with a 96 channel head. The plates were incubated for 1 hour and then the compound solution was removed by gentle aspiration. The cells were subsequently washed (1×100 μL) with phosphate buffered saline to remove residual fluorescent dye.
Sugar-conjugate uptake was assessed via intracellular fluorescence (FIG. 4b-4f) as determined using a Safire2™ multi-mode microplate reader (δex=485 nm, δem=535 nm) and normalized to cell number by a subsequent CellTiter-Glo® luminescent cell viability assay. […] The CellTiter-Glo® luminescent cell viability assay was analyzed on a Safire2™ multi-mode microplate reader for luminescence at 1 second per well. As an initial preliminary study, the transport assay with a representative set of probes was also analyzed using microscopy (FIG. 6).

The target of data set [2] is T1, GLUT11 (Homo sapiens, UniProt Q9BYW1).
T1 construct: host or cells: Xenopus oocytes mainly; also COS-7, CHO, yeast variants (not tied to single values)
T1 sequence (Q9BYW1 1-496): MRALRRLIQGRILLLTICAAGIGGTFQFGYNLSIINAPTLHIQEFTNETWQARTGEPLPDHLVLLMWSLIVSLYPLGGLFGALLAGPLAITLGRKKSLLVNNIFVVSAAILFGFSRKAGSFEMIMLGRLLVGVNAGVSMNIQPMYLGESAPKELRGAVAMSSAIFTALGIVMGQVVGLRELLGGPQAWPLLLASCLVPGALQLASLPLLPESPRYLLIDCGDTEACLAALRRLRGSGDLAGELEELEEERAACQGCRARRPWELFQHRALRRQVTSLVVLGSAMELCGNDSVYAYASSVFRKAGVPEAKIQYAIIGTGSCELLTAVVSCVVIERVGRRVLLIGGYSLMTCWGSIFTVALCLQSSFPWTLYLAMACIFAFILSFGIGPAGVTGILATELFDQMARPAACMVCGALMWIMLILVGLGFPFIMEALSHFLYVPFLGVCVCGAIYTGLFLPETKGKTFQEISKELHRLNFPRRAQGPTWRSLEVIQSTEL
To be noted: literature; cited from earlier work.

Data set [3] addresses T2, GLUT5 (Homo sapiens, UniProt P22732).
T2 construct: host or cells: Xenopus oocytes mainly; also COS-7, CHO, yeast variants (not tied to single values)
T2 sequence (P22732 1-501): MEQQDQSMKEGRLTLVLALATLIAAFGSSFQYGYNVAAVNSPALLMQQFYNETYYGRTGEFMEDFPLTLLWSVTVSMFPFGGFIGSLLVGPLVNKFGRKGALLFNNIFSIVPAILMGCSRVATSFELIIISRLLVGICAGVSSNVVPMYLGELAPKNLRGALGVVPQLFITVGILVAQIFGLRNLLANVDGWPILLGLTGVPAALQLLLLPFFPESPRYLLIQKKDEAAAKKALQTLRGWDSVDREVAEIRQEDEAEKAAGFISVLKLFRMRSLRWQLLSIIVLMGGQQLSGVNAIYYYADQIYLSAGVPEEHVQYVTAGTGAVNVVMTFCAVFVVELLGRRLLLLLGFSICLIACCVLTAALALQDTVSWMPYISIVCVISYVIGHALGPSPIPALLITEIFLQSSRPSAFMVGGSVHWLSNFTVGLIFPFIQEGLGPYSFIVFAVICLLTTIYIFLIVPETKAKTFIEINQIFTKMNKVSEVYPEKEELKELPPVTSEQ
Conditions: literature; cited from earlier work.

Data set [4] concerns the target T3, GLUT2 (Homo sapiens, UniProt P11168).
T3 construct: host or cells: Xenopus oocytes mainly; also COS-7, CHO, yeast variants (not tied to single values)
T3 sequence (P11168 1-524): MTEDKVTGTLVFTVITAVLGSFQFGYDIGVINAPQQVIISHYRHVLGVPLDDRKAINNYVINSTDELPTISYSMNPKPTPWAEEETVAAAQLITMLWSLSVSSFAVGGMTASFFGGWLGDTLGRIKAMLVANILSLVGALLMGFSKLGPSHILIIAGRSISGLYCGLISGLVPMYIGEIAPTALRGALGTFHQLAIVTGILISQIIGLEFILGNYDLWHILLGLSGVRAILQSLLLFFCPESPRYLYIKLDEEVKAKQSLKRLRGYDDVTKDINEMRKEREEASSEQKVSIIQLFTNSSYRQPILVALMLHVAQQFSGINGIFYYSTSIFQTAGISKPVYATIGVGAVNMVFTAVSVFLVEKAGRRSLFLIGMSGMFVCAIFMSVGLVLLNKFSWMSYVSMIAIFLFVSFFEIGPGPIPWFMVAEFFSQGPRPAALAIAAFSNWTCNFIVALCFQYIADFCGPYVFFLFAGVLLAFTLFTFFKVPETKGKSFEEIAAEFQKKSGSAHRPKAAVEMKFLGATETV
Conditions: literature; cited from earlier work.

The target in data set [5] is T4, GLUT9 (Homo sapiens, UniProt Q9NRM0).
T4 construct: host or cells: Xenopus oocytes mainly; also COS-7, CHO, yeast variants (not tied to single values)
T4 sequence (Q9NRM0 1-540): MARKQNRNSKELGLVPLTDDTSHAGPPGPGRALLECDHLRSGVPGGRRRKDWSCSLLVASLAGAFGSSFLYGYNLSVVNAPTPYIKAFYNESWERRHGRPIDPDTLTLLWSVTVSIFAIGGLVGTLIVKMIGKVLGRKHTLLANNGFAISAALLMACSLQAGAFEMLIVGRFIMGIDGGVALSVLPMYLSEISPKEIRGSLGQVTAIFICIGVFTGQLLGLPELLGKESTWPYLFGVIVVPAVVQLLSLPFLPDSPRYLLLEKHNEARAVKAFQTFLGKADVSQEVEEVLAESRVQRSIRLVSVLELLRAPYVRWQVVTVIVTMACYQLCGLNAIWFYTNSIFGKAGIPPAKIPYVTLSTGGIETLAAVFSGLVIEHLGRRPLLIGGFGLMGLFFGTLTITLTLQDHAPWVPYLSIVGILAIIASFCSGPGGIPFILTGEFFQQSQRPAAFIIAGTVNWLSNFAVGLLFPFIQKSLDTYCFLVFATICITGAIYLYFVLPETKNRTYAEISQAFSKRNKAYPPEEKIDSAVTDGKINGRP
To be noted: literature; cited from earlier work.

Data set [6] concerns the target T5, GLUT7 (Homo sapiens, UniProt Q6PXP3).
T5 construct: host or cells: Xenopus oocytes mainly; also COS-7, CHO, yeast variants (not tied to single values)
T5 sequence (Q6PXP3 1-512): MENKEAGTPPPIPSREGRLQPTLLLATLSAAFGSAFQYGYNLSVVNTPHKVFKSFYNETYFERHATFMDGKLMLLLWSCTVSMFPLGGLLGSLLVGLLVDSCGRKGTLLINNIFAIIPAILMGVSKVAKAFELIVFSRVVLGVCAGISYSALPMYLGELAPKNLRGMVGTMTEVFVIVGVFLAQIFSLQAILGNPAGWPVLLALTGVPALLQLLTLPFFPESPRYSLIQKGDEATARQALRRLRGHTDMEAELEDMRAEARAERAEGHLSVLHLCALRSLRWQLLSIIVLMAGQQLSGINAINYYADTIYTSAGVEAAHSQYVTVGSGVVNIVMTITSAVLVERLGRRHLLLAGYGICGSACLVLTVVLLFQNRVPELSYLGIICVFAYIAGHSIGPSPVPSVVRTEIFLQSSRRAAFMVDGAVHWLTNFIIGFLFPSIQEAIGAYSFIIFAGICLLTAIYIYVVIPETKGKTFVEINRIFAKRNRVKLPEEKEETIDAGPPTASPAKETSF
Conditions: literature; cited from earlier work.

Data set [7] has as its target T6, GLUT3 (Homo sapiens, UniProt P11169).
T6 construct: host or cells: Xenopus oocytes mainly; also COS-7, CHO, yeast variants (not tied to single values)
T6 sequence (P11169 1-496): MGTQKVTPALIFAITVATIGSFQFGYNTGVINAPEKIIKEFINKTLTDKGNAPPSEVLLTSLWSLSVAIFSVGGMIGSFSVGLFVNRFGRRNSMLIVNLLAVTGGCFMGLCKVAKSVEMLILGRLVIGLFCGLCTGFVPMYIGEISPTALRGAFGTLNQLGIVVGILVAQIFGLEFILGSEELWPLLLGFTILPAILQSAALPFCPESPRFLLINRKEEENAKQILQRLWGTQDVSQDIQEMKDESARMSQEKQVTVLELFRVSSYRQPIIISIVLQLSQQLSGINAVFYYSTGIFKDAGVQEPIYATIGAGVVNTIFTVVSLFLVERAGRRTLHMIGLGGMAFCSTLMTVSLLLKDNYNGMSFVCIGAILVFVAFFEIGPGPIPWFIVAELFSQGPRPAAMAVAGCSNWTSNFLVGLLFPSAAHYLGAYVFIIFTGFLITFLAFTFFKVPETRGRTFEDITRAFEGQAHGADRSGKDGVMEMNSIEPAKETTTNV
To be noted: literature; cited from earlier work.

For data set [8] the following is noted: compared with the parent ifosfamide; cited from earlier work.

For aminofluoroscein [parent 11], in data set [1], the “sugar-conjugate uptake (intracellular fluorescence normalized to cell number)” value is on record as “No uptake”.
Turning to `O=C(CO)[C@@H](O)[C@H](O)[C@H](O)CO` [fructose], the “transport by GLUT11” value in data set [2] is recorded as “provides for transport”. Also, the “affinity for GLUT5” value in data set [3] is recorded as “approximately 1 mM”.
Take `N[C@H]1C(O)O[C@H](CO)[C@@H](O)[C@@H]1O` (stereo partly drawn) [glucosamine]: in data set [4], the “affinity for GLUT2” value was “approximately 1 mM”.
For the compound `O=CC[C@@H](O)[C@H](O)[C@H](O)CO` [2-deoxyglucose], the “transport by GLUT9” value in data set [5] is on record as “transport”. In addition, the “transport by GLUT7” value in data set [6] is given as “does not transport”. The “affinity for GLUT3” value in data set [7] is “approximately 1.5 mM”.
On to `O=P(NCCCl)(NCCCl)O[C@@H]1O[C@H](CO)[C@@H](O)[C@H](O)[C@H]1O` [glufosfamide], for which, in data set [8], the antitumor activity result is recorded as “higher antitumor activity” and the myelotoxicity result is listed as “lower myelotoxicity”.
On to `O=C[C@H](O)[C@@H](O)[C@H](O)CO` [xylose], for which the “transport by GLUT7” value in data set [6] is “does not transport”.
Turning to `O=C[C@H](O)[C@@H](O)[C@@H](O)[C@H](O)CO` [galactose], the “transport by GLUT11” value in data set [2] is reported as “not galactose”. The “transport by GLUT7” value in data set [6] is reported as “does not transport”.
